Laboratory results published in patent publication US20090084166A1, “Sensors comprising a chelated metal ion linker layer” (priority 2007, published 2009).

Legend:
[1] = Non-specific binding test of CAII on the sensor surface without EDC/NHS activation; details: CAII flowed over surface 101 without prior activation with EDC/NHS
Excerpt: Present on the activated dielectric surface 110 is a chelated metal ion linking layer 104. […] (RU stands for resonance unit and is directly proportional to the concentration of biomolecules on a surface. 1 RU is ca. 1 pg/mm^2.)
To test for non-specific binding, a ligand (CAII) was flowed over surface 101 through chamber 136 in the same manner as above but without any prior activation with EDC/NHS.

[2] = target: carbonic anhydrase II (CAII) (Homo sapiens, UniProt P00918); test: SPR biomolecular interaction assay of CBS with immobilized CAII; format: binding; details: CBS 40 μM to 80 nM in phosphate-buffered saline, run over CAII surface
Excerpt: During use, light source 142 directs a light beam 150 toward prism 120 by way of suitable optics. Light beam 150 passes into and through light-transmissive support 105 and reflects off metal layer 107. Reflected light 152 is received by optical detector 144. Optical detector 144 passes a corresponding signal to the detection circuitry 146. The ligand 102 is contacted with sample and may bind to analytes in the sample. Binding of analyte and ligand 102 causes a change in a property of the reflected light 152 that can be detected by optical detection system 130. Upon detection of the change in a property of the reflected light 152, the detection system may produce a sample-responsive signal. The resultant sample responsive signal may then be employed to assess the presence of analyte in the sample. In certain embodiments, the sample-responsive signal is in the form of a “sensorgram.” A sensorgram is a plot of response (measured in “resonance units” or “RU”) as a function of time. An increase of RU corresponds to an increase of mass on the sensor surface. […]
The ligand, (CAII) is immobilized on the surface layer as stated above in “ligand attachment”. […] Binding curves are produced of the analyte interaction with the enzyme and binding rates are calculated.

| Substance | non-specific binding [1] | Response units (binding to immobilized CAII) [2] |
| --- | --- | --- |
| carbonic anhydrase II [CAII] | ca. 10 RU |  |
| carboxybenzenesulfonamide [CBS] |  | proportional to the concentration of the analyte and are cleanly seen above the baseline |
